Results published in US11078170B2 (Assembly Biosciences, Inc., priority 2017, dated 2021).

system: HBV viral production from HepAD38 cells; test: Activity of test compounds on viral production from HepAD38 cells (viral load by qPCR of HBV core sequence in supernatant); type: cell-based; conditions: Hepatitis B virus, 120 h, 5 days incubation, HBV DNA in supernatant by qPCR, top concentration 10 μM, read-out: Viral Load EC50 Activity range
Procedure, shortened: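 EC50 and CC50 come from four-parameter fits of supernatant viral load and CellTiter-Glo viability, respectively. Viral load was measured by core-region TaqMan qPCR against HBV DNA standards and compared with DMSO controls. Tet-free HepAD38 cells (50,000/well, 2% FBS) were exposed to compound, highest 10 μM, for 5 days at 37° C.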

Question: How did the EC50 turn out when `CN1[C@H](C(=O)Nc2ccc(F)c(Cl)c2)C[C@H](c2ncc(-c3ccn(C)n3)s2)NS1(=O)=O` (stereo in doubt) [HBV-CSU-280-ISO-I, Cis-N-(3-Chloro-4-fluorophenyl)-2-methyl-5-(5-(1-methyl-1H-pyrazol-3-yl)thiazol-2-yl)-1,2,6-thiadiazinane-3-carboxamide 1,1-dioxide] was run?
Answer: Its EC50 is 1000 to 5000 nM.

Question: How did the EC50 turn out when `CN1[C@@H](C(=O)Nc2ccc(F)c(Cl)c2)C[C@@H](c2ncc(-c3ccn(C)n3)s2)NS1(=O)=O` (stereo in doubt) [HBV-CSU-280-ISO-II, Cis-N-(3-Chloro-4-fluorophenyl)-2-methyl-5-(5-(1-methyl-1H-pyrazol-3-yl)thiazol-2-yl)-1,2,6-thiadiazinane-3-carboxamide 1,1-dioxide] was run?
Answer: The EC50 was under 1000 nM.

Question: How did the EC50 turn out when `CN1[C@@H](C(=O)Nc2ccc(F)c(Cl)c2)C[C@@H](c2ncc(-c3c[nH]cn3)s2)NS1(=O)=O` (stereo in doubt) [HBV-CSU-333-ISO-II, 5-(5-(1H-imidazol-4-yl)thiazol-2-yl)-N-(3-chloro-4-fluorophenyl)-2-methyl-1,2,6-thiadiazinane-3-carboxamide 1,1-dioxide] was run?
Answer: Its EC50 is 1000 to 5000 nM.

Question: `[2H]C1[C@]([2H])(c2ncc(-c3cn(C([2H])([2H])[2H])cn3)s2)NS(=O)(=O)N(C([2H])([2H])[2H])[C@]1([2H])C(=O)Nc1ccc(F)c(Cl)c1` (stereo in doubt) [HBV-CSU-339-ISO-I, Cis-N-(3-Chloro-4-fluorophenyl)-2-(methyl-d3)-5-(5-(1-(methyl-d3)-1H-imidazol-4-yl)thiazol-2-yl)-1,2,6-thiadiazinane-3,4,5-d3-3-carboxamide 1,1-dioxide] was tested. Which EC50 did it give?
Answer: The EC50 was under 1000 nM.

Question: How did the EC50 turn out when `[2H]C1[C@]([2H])(C(=O)Nc2ccc(F)c(Cl)c2)N(C([2H])([2H])[2H])S(=O)(=O)N[C@]1([2H])c1ncc(-c2cn(C([2H])([2H])[2H])cn2)s1` (stereo in doubt) [HBV-CSU-339-ISO-II, Cis-N-(3-Chloro-4-fluorophenyl)-2-(methyl-d3)-5-(5-(1-(methyl-d3)-1H-imidazol-4-yl)thiazol-2-yl)-1,2,6-thiadiazinane-3,4,5-d3-3-carboxamide 1,1-dioxide] was run?
Answer: Its EC50 is 1000 to 5000 nM.

Question: For `[2H]C1[C@]([2H])(c2ncc(-c3cn(C)cn3)s2)NS(=O)(=O)N(C([2H])([2H])[2H])[C@]1([2H])C(=O)Nc1ccc(F)c(Cl)c1` (stereo in doubt) [HBV-CSU-340-ISO-I, Cis-N-(3-Chloro-4-fluorophenyl)-2-(methyl-d3)-5-(5-(1-methyl-1H-imidazol-4-yl)thiazol-2-yl)-1,2,6-thiadiazinane-3,4,5-d3-3-carboxamide 1,1-dioxide], which EC50 is on record?
Answer: The EC50 was under 1000 nM.

Question: How did the EC50 turn out when `[2H]C1[C@]([2H])(C(=O)Nc2ccc(F)c(Cl)c2)N(C([2H])([2H])[2H])S(=O)(=O)N[C@]1([2H])c1ncc(-c2cn(C)cn2)s1` (stereo in doubt) [HBV-CSU-340-ISO-II, Cis-N-(3-Chloro-4-fluorophenyl)-2-(methyl-d3)-5-(5-(1-methyl-1H-imidazol-4-yl)thiazol-2-yl)-1,2,6-thiadiazinane-3,4,5-d3-3-carboxamide 1,1-dioxide] was run?
Answer: The EC50 was 1000 to 5000 nM.

Question: With `[2H]C1[C@]([2H])(c2ncc(-c3cn(C([2H])([2H])[2H])cn3)s2)NS(=O)(=O)N(C)[C@]1([2H])C(=O)Nc1ccc(F)c(Cl)c1` (stereo in doubt) [HBV-CSU-341-ISO-I, Cis-N-(3-Chloro-4-fluorophenyl)-2-methyl-5-(5-(1-(methyl-d3)-1H-imidazol-4-yl)thiazol-2-yl)-1,2,6-thiadiazinane-3,4,5-d3-3-carboxamide 1,1-dioxide] as the molecule, how does the EC50 read?
Answer: Its EC50 is under 1000 nM.

Question: How did the EC50 turn out when `[2H]C1[C@]([2H])(C(=O)Nc2ccc(F)c(Cl)c2)N(C)S(=O)(=O)N[C@]1([2H])c1ncc(-c2cn(C([2H])([2H])[2H])cn2)s1` (stereo in doubt) [HBV-CSU-341-ISO-II, Cis-N-(3-Chloro-4-fluorophenyl)-2-methyl-5-(5-(1-(methyl-d3)-1H-imidazol-4-yl)thiazol-2-yl)-1,2,6-thiadiazinane-3,4,5-d3-3-carboxamide 1,1-dioxide] was run?
Answer: Its EC50 is 1000 to 5000 nM.

Question: How did the EC50 turn out when `[2H]C1[C@]([2H])(c2ccc(Br)s2)NS(=O)(=O)N(C)[C@]1([2H])C(=O)Nc1ccc(F)c(Cl)c1` (stereo in doubt) [HBV-CSU-371-ISO-I, Cis-5-(5-Bromothiophen-2-yl)-N-(3-chloro-4-fluorophenyl)-2-methyl-1,2,6-thiadiazinane-3,4,5-d3-3-carboxamide 1,1-dioxide] was run?
Answer: The EC50 was under 1000 nM.

Question: `[2H]C1[C@]([2H])(C(=O)Nc2ccc(F)c(Cl)c2)N(C)S(=O)(=O)N[C@]1([2H])c1ccc(Br)s1` (stereo in doubt) [HBV-CSU-371-ISO-II, Cis-5-(5-Bromothiophen-2-yl)-N-(3-chloro-4-fluorophenyl)-2-methyl-1,2,6-thiadiazinane-3,4,5-d3-3-carboxamide 1,1-dioxide] was tested. Which EC50 did it give?
Answer: The EC50 was 1000 to 5000 nM.

Question: For `[2H]C1[C@]([2H])(c2ccc(Br)s2)NS(=O)(=O)N(C([2H])([2H])[2H])[C@]1([2H])C(=O)Nc1ccc(F)c(Cl)c1` (stereo in doubt) [HBV-CSU-372-ISO-I, Cis-5-(5-bromothiophen-2-yl)-N-(3-chloro-4-fluorophenyl)-2-(methyl-d3)-1,2,6-thiadiazinane-3,4,5-d3-3-carboxamide 1,1-dioxide], which EC50 is on record?
Answer: The EC50 was under 1000 nM.

Question: Which EC50 does the source give for `[2H]C1[C@]([2H])(C(=O)Nc2ccc(F)c(Cl)c2)N(C([2H])([2H])[2H])S(=O)(=O)N[C@]1([2H])c1ccc(Br)s1` (stereo in doubt) [HBV-CSU-372-ISO-II, Cis-5-(5-bromothiophen-2-yl)-N-(3-chloro-4-fluorophenyl)-2-(methyl-d3)-1,2,6-thiadiazinane-3,4,5-d3-3-carboxamide 1,1-dioxide] here?
Answer: Its EC50 is 1000 to 5000 nM.

Question: For `[2H]C([2H])([2H])N1[C@@H](C(=O)Nc2ccc(F)c(Cl)c2)CC(c2ccc(-c3cn(C)cn3)s2)NS1(=O)=O` (stereo in doubt) [HBV-CSU-373-ISO-II, Cis-N-(3-Chloro-4-fluorophenyl)-2-(methyl-d3)-5-(5-(1-methyl-1H-imidazol-4-yl)thiophen-2-yl)-1,2,6-thiadiazinane-3-carboxamide 1,1-dioxide], which EC50 is on record?
Answer: Its EC50 is under 1000 nM.

Question: With `[2H]C([2H])([2H])N1[C@H](C(=O)Nc2ccc(F)c(Cl)c2)C[C@H](c2ccc(-c3cn(C([2H])([2H])[2H])cn3)s2)NS1(=O)=O` (stereo in doubt) [HBV-CSU-374-ISO-I, Cis-N-(3-Chloro-4-fluorophenyl)-2-(methyl-d3)-5-(5-(1-(methyl-d3)-1H-imidazol-4-yl)thiophen-2-yl)-1,2,6-thiadiazinane-3-carboxamide 1,1-dioxide] as the molecule, how does the EC50 read?
Answer: Its EC50 is under 1000 nM.

Question: How did the EC50 turn out when `[2H]C([2H])([2H])N1[C@@H](C(=O)Nc2ccc(F)c(Cl)c2)C[C@@H](c2ccc(-c3cn(C([2H])([2H])[2H])cn3)s2)NS1(=O)=O` (stereo in doubt) [HBV-CSU-374-ISO-II, Cis-N-(3-Chloro-4-fluorophenyl)-2-(methyl-d3)-5-(5-(1-(methyl-d3)-1H-imidazol-4-yl)thiophen-2-yl)-1,2,6-thiadiazinane-3-carboxamide 1,1-dioxide] was run?
Answer: Its EC50 is under 1000 nM.

Question: Which EC50 does the source give for `[2H]C1[C@]([2H])(c2ccc(-c3cn(C)cn3)s2)NS(=O)(=O)N(C)[C@]1([2H])C(=O)Nc1ccc(F)c(Cl)c1` (stereo in doubt) [HBV-CSU-375-ISO-I, Cis-N-(3-Chloro-4-fluorophenyl)-2-methyl-5-(5-(1-methyl-1H-imidazol-4-yl)thiophen-2-yl)-1,2,6-thiadiazinane-3,4,5-d3-3-carboxamide 1,1-dioxide] here?
Answer: The EC50 was under 1000 nM.

Question: With `[2H]C1[C@]([2H])(C(=O)Nc2ccc(F)c(Cl)c2)N(C)S(=O)(=O)N[C@]1([2H])c1ccc(-c2cn(C)cn2)s1` (stereo in doubt) [HBV-CSU-375-ISO-II, Cis-N-(3-Chloro-4-fluorophenyl)-2-methyl-5-(5-(1-methyl-1H-imidazol-4-yl)thiophen-2-yl)-1,2,6-thiadiazinane-3,4,5-d3-3-carboxamide 1,1-dioxide] as the molecule, how does the EC50 read?
Answer: Its EC50 is 1000 to 5000 nM.

Question: Which EC50 does the source give for `[2H]C1[C@]([2H])(c2ccc(-c3cn(C([2H])([2H])[2H])cn3)s2)NS(=O)(=O)N(C)[C@]1([2H])C(=O)Nc1ccc(F)c(Cl)c1` (stereo in doubt) [HBV-CSU-376-ISO-I, Cis-N-(3-Chloro-4-fluorophenyl)-2-methyl-5-(5-(1-(methyl-d3)-1H-imidazol-4-yl)thiophen-2-yl)-1,2,6-thiadiazinane-3,4,5-d3-3-carboxamide 1,1-dioxide] here?
Answer: Its EC50 is under 1000 nM.

Question: Which EC50 does the source give for `[2H]C1[C@]([2H])(C(=O)Nc2ccc(F)c(Cl)c2)N(C)S(=O)(=O)N[C@]1([2H])c1ccc(-c2cn(C([2H])([2H])[2H])cn2)s1` (stereo in doubt) [HBV-CSU-376-ISO-II, Cis-N-(3-Chloro-4-fluorophenyl)-2-methyl-5-(5-(1-(methyl-d3)-1H-imidazol-4-yl)thiophen-2-yl)-1,2,6-thiadiazinane-3,4,5-d3-3-carboxamide 1,1-dioxide] here?
Answer: The EC50 was 1000 to 5000 nM.

Question: For `[2H]C1[C@]([2H])(c2ccc(-c3cn(C([2H])([2H])[2H])cn3)s2)NS(=O)(=O)N(C([2H])([2H])[2H])[C@]1([2H])C(=O)Nc1ccc(F)c(Cl)c1` (stereo in doubt) [HBV-CSU-378-ISO-I, Cis-N-(3-chloro-4-fluorophenyl)-2-(methyl-d3)-5-(5-(1-(methyl-d3)-1H-imidazol-4-yl)thiophen-2-yl)-1,2,6-thiadiazinane-3,4,5-d3-3-carboxamide 1,1-dioxide], which EC50 is on record?
Answer: Its EC50 is under 1000 nM.

Question: `[2H]C1[C@]([2H])(C(=O)Nc2ccc(F)c(Cl)c2)N(C([2H])([2H])[2H])S(=O)(=O)N[C@]1([2H])c1ccc(-c2cn(C([2H])([2H])[2H])cn2)s1` (stereo in doubt) [HBV-CSU-378-ISO-II, Cis-N-(3-chloro-4-fluorophenyl)-2-(methyl-d3)-5-(5-(1-(methyl-d3)-1H-imidazol-4-yl)thiophen-2-yl)-1,2,6-thiadiazinane-3,4,5-d3-3-carboxamide 1,1-dioxide] was tested. Which EC50 did it give?
Answer: The EC50 was 1000 to 5000 nM.
